Laboratory results reported in ChEMBL document CHEMBL1201862, “PubChem BioAssay data set” (2004).
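48-hour exposure; five concentrations; linearly interpolated endpoints. At the GI50, growth is halved.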 Calls of active or inactive are those of the source. Rule as the data show it: active = GI50 up to about 1.1 µM and inactive = higher.

What was measured:
Test in all cases: NCI-60 cell line screen, 48 h
CCRF-CEM = tested on: CCRF-CEM
SF-268 = tested on: SF-268
SF-295 = tested on: SF-295
MDA-N = tested on: MDA-N
786-0 = tested on: 786-0
A549 = tested on: A549
SK-MEL-5 = tested on: SK-MEL-5
KM12 = tested on: KM12
TK-10 = tested on: TK-10
SN12C = tested on: SN12C
SK-OV-3 = tested on: SK-OV-3
DU-145 = tested on: DU-145
HCT-15 = tested on: HCT-15
SW-620 = tested on: SW-620
SK-MEL-2 = tested on: SK-MEL-2
UO-31 = tested on: UO-31
Hs-578T = tested on: Hs-578T
A498 = tested on: A498
EKVX = tested on: EKVX
MOLT-4 = tested on: MOLT-4

| SMILES | GI50 (CCRF-CEM) | GI50 (SF-268) | GI50 (SF-295) | GI50 (MDA-N) | GI50 (786-0) | GI50 (A549) | GI50 (SK-MEL-5) | GI50 (KM12) | GI50 (TK-10) | GI50 (SN12C) | GI50 (SK-OV-3) | GI50 (DU-145) | GI50 (HCT-15) | GI50 (SW-620) | GI50 (SK-MEL-2) | GI50 (UO-31) | GI50 (Hs-578T) | GI50 (A498) | GI50 (EKVX) | GI50 (MOLT-4) |
| --- | --- | --- | --- | --- | --- | --- | --- | --- | --- | --- | --- | --- | --- | --- | --- | --- | --- | --- | --- | --- |
| CC12CCCC(O)C1CCC1=CC3(CCC12)SCCS3 (stereo unspecified) | 5.83 µM (inactive) | > 10 µM (inactive) | > 10 µM (inactive) | > 10 µM (inactive) | > 10 µM (inactive) | > 10 µM (inactive) | > 10 µM (inactive) | > 10 µM (inactive) | > 10 µM (inactive) | > 10 µM (inactive) | > 10 µM (inactive) | > 10 µM (inactive) | > 10 µM | > 10 µM (inactive) |  |  |  |  |  |  |
| O=CC1C(Cl)=Nc2nc3ccccc3n2C1c1ccccc1 (stereo unspecified) | 12.4 µM (inactive) | 16.8 µM (inactive) | > 100 µM (inactive) |  | 15.6 µM (inactive) | 23.8 µM (inactive) | 19.6 µM (inactive) | 23.4 µM (inactive) | 26.3 µM (inactive) | 20.7 µM (inactive) |  | 16 µM (inactive) | 16.2 µM | 19.4 µM (inactive) | 12 µM (inactive) | 14.7 µM (inactive) | 0.741 µM (active) | 3.01 µM (inactive) | 25.2 µM (inactive) |  |
| C[Si](C)(C)c1ccc(-c2c3ccc(-c4cc(Br)cc(Br)c4)nc3nc3nc(-c4cc(Br)cc(Br)c4)ccc23)cc1 |  | > 100 µM (inactive) | > 100 µM (inactive) | > 100 µM (inactive) | > 100 µM (inactive) | > 100 µM (inactive) | > 100 µM (inactive) | > 100 µM (inactive) | > 100 µM (inactive) | > 100 µM (inactive) | > 100 µM (inactive) | > 100 µM (inactive) | > 100 µM |  | > 100 µM (inactive) | > 100 µM (inactive) |  | > 100 µM (inactive) | > 100 µM (inactive) |  |
| COC(=O)C(NC(=O)CSc1nnc(COc2ccc(Cl)cc2)n1-c1ccccc1)C(C)C (stereo unspecified) | 23.4 µM (inactive) | 20.7 µM (inactive) | 22 µM (inactive) | 16.2 µM (inactive) | 18.1 µM (inactive) | 35.2 µM (inactive) |  | 19.1 µM (inactive) | 15.6 µM (inactive) | 18.6 µM (inactive) | 37.2 µM (inactive) | 37.3 µM (inactive) | 36.7 µM | 56.4 µM (inactive) | 18.7 µM (inactive) | 26.7 µM (inactive) |  | 21.2 µM (inactive) | 23 µM (inactive) | 21.6 µM (inactive) |
| C1CSCCSS[C@@H]2CCCCC2SC1 (stereo partly specified) | > 100 µM (inactive) | > 100 µM (inactive) | > 100 µM (inactive) | > 100 µM (inactive) | > 100 µM (inactive) | > 100 µM (inactive) | > 100 µM (inactive) | > 100 µM (inactive) | > 100 µM (inactive) | > 100 µM (inactive) | > 100 µM (inactive) | > 100 µM (inactive) | > 100 µM | > 100 µM (inactive) |  | 78.9 µM (inactive) |  |  | > 100 µM (inactive) | > 100 µM (inactive) |
| COc1ccc([C@@]23OC[C@@H]4[C@@H](OC[C@@H]42)c2cc(OC)c(OC)cc23)cc1OC |  |  | > 100 µM (inactive) |  | > 100 µM (inactive) | > 100 µM (inactive) | > 100 µM (inactive) | > 100 µM (inactive) | > 100 µM (inactive) |  | > 100 µM (inactive) | > 100 µM (inactive) | > 100 µM | > 100 µM (inactive) | > 100 µM (inactive) | > 100 µM (inactive) |  | > 100 µM (inactive) | > 100 µM (inactive) | > 100 µM (inactive) |
| O=c1[nH]c(=O)n(COCc2ccccc2)c2ccc(Br)cc12 | > 100 µM (inactive) |  | 87.7 µM (inactive) | > 100 µM (inactive) | > 100 µM (inactive) | > 100 µM (inactive) | 99.3 µM (inactive) | > 100 µM (inactive) | > 100 µM (inactive) | > 100 µM (inactive) | > 100 µM (inactive) | > 100 µM (inactive) | 71.4 µM | > 100 µM (inactive) | > 100 µM (inactive) | > 100 µM (inactive) |  | > 100 µM (inactive) | 96.8 µM (inactive) | > 100 µM (inactive) |
| COc1ccc2c(c1)CN1C(=N2)CSC1c1c(Cl)cccc1[N+](=O)[O-] (stereo unspecified) |  | 20 µM (inactive) | 21.8 µM (inactive) | 18.5 µM (inactive) | 25.9 µM (inactive) | 31.9 µM (inactive) | 12.8 µM (inactive) | 19.5 µM (inactive) | 28.2 µM (inactive) | 17.5 µM (inactive) | 39.7 µM (inactive) |  | 16.6 µM | 15.6 µM (inactive) | 17.5 µM (inactive) | 21.3 µM (inactive) | 24.7 µM (inactive) |  | 25.4 µM (inactive) | 12.6 µM (inactive) |
| CCOC(=O)N/N=C(\Cc1ccc([N+](=O)[O-])cc1)OCC | > 100 µM (inactive) | > 100 µM (inactive) | > 100 µM (inactive) | > 100 µM (inactive) | > 100 µM (inactive) | > 100 µM (inactive) | > 100 µM (inactive) | > 100 µM (inactive) | > 100 µM (inactive) | > 100 µM (inactive) | > 100 µM (inactive) | > 100 µM (inactive) | > 100 µM | > 100 µM (inactive) | > 100 µM (inactive) | > 100 µM (inactive) |  |  | > 100 µM (inactive) | > 100 µM (inactive) |
| Cc1noc2cccc(O)c12 | > 100 µM (inactive) | > 100 µM (inactive) | > 100 µM (inactive) |  | > 100 µM (inactive) | > 100 µM (inactive) | > 100 µM (inactive) | > 100 µM (inactive) | > 100 µM (inactive) | > 100 µM (inactive) | > 100 µM (inactive) |  | > 100 µM | > 100 µM (inactive) | > 100 µM (inactive) | > 100 µM (inactive) |  | > 100 µM (inactive) | > 100 µM (inactive) | > 100 µM (inactive) |
| Cc1cc(NS(=O)(=O)c2ccc(Nc3c4ccccc4nc4c(C(=O)Nc5ccc(S(N)(=O)=O)cc5)cccc34)cc2)no1 | 26.5 µM (inactive) | 36.9 µM (inactive) | > 100 µM (inactive) |  | > 100 µM (inactive) | > 100 µM (inactive) | 63.1 µM (inactive) | 20.6 µM (inactive) | > 100 µM (inactive) | 36.2 µM (inactive) | > 100 µM (inactive) |  | > 100 µM | 74.3 µM (inactive) | 24.1 µM (inactive) | 80.9 µM (inactive) |  | > 100 µM (inactive) | > 100 µM (inactive) | 27 µM (inactive) |
| C=C(c1ccccc1N)[C@@]1(O)C[C@H](/C(=C\C)CO)C[C@@H]1NCc1ccccc1 | 21.2 µM (inactive) | 30.8 µM (inactive) | 16.9 µM (inactive) |  | 20.6 µM (inactive) | 37 µM (inactive) | 17.1 µM (inactive) | 18.2 µM (inactive) | 20.8 µM (inactive) | 32 µM (inactive) | 21.5 µM (inactive) |  | 29 µM | 21.7 µM (inactive) | 22.2 µM (inactive) | 17.4 µM (inactive) |  | 82.6 µM (inactive) | 37.1 µM (inactive) | 18.2 µM (inactive) |
| COc1nc(=O)cc(N)n1C1OC(CO)C(O)C1O (stereo unspecified) | > 100 µM (inactive) | > 100 µM (inactive) | > 100 µM (inactive) |  | > 100 µM (inactive) | > 100 µM (inactive) | > 100 µM (inactive) | > 100 µM (inactive) | > 100 µM (inactive) | > 100 µM (inactive) | > 100 µM (inactive) |  | > 100 µM | > 100 µM (inactive) | > 100 µM (inactive) | > 100 µM (inactive) |  | > 100 µM (inactive) | > 100 µM (inactive) | > 100 µM (inactive) |
| CN(C)c1ccc([S+]([O-])Nc2ccccc2)cc1 (stereo unspecified) | > 100 µM (inactive) | 45.6 µM (inactive) | 48.8 µM (inactive) |  | 35.4 µM (inactive) | 39 µM (inactive) | 11.9 µM (inactive) | 17.1 µM (inactive) | > 100 µM (inactive) | > 100 µM (inactive) |  | > 100 µM (inactive) | 11.6 µM | 51.2 µM (inactive) | 35.8 µM (inactive) | 11.1 µM (inactive) | 45 µM (inactive) |  | 32.8 µM (inactive) | 53.8 µM (inactive) |
| Cc1ccccc1NC(=O)C(=O)C(C#N)c1ccc(Cl)cc1 (stereo unspecified) | 64 µM (inactive) | 69.8 µM (inactive) | 64.3 µM (inactive) |  | 28 µM (inactive) | 95.5 µM (inactive) | 41.8 µM (inactive) | 44.6 µM (inactive) | 81.5 µM (inactive) | 44.9 µM (inactive) | > 100 µM (inactive) |  | 18.7 µM | 15.4 µM (inactive) | 56.5 µM (inactive) | 57.7 µM (inactive) |  | > 100 µM (inactive) | > 100 µM (inactive) | 52.6 µM (inactive) |
| Cc1cccc(C(C)C)c1NC(=O)C(=O)CC(=O)c1c(C)[n+]([O-])c2ccccc2[n+]1[O-] | 32.2 µM (inactive) | 30.1 µM (inactive) | 49.1 µM (inactive) |  | 49.1 µM (inactive) | 36.7 µM (inactive) | 34 µM (inactive) | 38.6 µM (inactive) | > 100 µM (inactive) | 30.6 µM (inactive) | > 100 µM (inactive) |  | 20.9 µM | 33.1 µM (inactive) | 29.3 µM (inactive) | > 100 µM (inactive) |  | > 100 µM (inactive) | 30.7 µM (inactive) | 21.5 µM (inactive) |
| COC(=O)c1cccc2cccc(C(=O)Nc3ccc(Cl)cc3)c12 | 2.26 µM (inactive) | > 68.7 µM (inactive) | 1.72 µM (inactive) |  | > 100 µM (inactive) | > 78.2 µM (inactive) | 0.336 µM (active) | > 40.9 µM (inactive) | > 100 µM (inactive) | > 100 µM (inactive) | > 100 µM (inactive) |  | > 35.2 µM | 11.4 µM (inactive) | 1.84 µM (inactive) | 2.94 µM (inactive) |  | 36.1 µM (inactive) | 23.2 µM (inactive) | 3.1 µM (inactive) |
